Data reported in patent publication US10329324B2 (viDA Therapeutics Inc., priority 2013, dated 2019).
Structures can show the parent of a compound that is named as a salt. Where two headings read alike, the source gives them in different places.

Legend:
[1] = target: T1, human Granzyme B (hGzmB) (Homo sapiens, UniProt P10144); assay: Human Granzyme B enzymatic inhibition assay (fluorogenic, kinetic); assay type: biochemical; conditions: activity codes, Table 7; read-out: IC50 Activity Range
T1 construct: purchased Froelich Lab, Northshore University Health Systems Research Institute, Evanston, Ill., USA
T1 sequence (P10144 21-247): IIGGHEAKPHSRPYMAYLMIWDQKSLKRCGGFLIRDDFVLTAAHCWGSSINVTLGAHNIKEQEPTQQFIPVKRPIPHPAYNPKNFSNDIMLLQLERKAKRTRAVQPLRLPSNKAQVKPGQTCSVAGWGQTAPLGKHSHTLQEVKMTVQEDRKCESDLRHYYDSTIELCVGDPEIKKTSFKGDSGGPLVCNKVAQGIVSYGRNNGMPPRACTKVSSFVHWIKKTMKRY
How it was run: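 Human Granzyme B preincubated with compound for 30 min total (5 min shaking, 20 min bench, then reaction temperature). Fluorogenic substrate added and read kinetically, 25 cycles at 1-min intervals. Percent inhibition at one or two concentrations or 8–12-point 3-fold dose response from 20 uM, replicates, with IC50 by non-linear regression.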

[2] = Kinetic solubility determination in PBS; assay type: physicochemical; conditions: PBS 1X pH 7.4, 2.0% DMSO, 24 hour incubation at ambient temperature; for solubility at 24 h: phosphate buffered saline (PBS 1×), 21 °C, pH 7.4, aqueous buffer, kinetic from dmso stock
Experimental: Kinetic solubility buffer (phosphate buffered saline (PBS, 1×) at pH 7.4) was prepared from PBS (10×) solution, (Fisher Scientific, Pittsburgh, Pa., USA, 10×), by adding PBS (50 mL, 10×) to approximately water (450 mL HPLC grade). The volume of the solution was then adjusted to 500 mL for a total dilution factor of 1:10 and a final PBS concentration of 1×. The pH of the final solution (PBS (1×)) was measured and found to be 7.4.
A DMSO stock solution (typically 10 mM or greater) was used for each compound to be tested. A final DMSO concentration of 2.0% and maximum theoretical compound concentration of typically 200 μM (or greater) was achieved by diluting an aliquot (6 μl) of each stock with kinetic solubility buffer (294 μl, PBS (1×) at pH 7.4) using a liquid handling system (Hamilton STARlet, Hamilton Robotics, Inc., Reno, Nev., USA) and incubated directly in a solubility filter plate (Millipore, Billerica, Mass., USA). Following 24 hour incubation at ambient temperature (20.5-21.7° C.), each sample was vacuum filtered. The filtrate was injected into the chemiluminescent nitrogen detector for quantification (Automated Discovery Workstation, Analiza, Inc., Cleveland, Ohio, USA). Each result was reported both in μM and μg/mL units. Three separate on-board performance indicating standards were assayed in triplicate with each test compound to ensure test results were within the acceptable range.
The equimolar nitrogen response of the detector was calibrated using standards which spanned the dynamic range of the instrument from 0.08 to 4500 μg/ml nitrogen. Each filtrate was quantified with respect to this calibration curve. Each calculated solubility value was corrected for background nitrogen present in the DMSO, and buffer used to prepare each sample. All reported values for samples containing adjacent nitrogen atoms in a ring structure were corrected for the expected non-equimolar response. Each calculated solubility result assumed that each sample was free of nitrogen containing impurities and was stable under the assay conditions. Analyses were performed at Analiza Inc. (Cleveland, Ohio, USA) by published methods (Bhattachar, S. N., et al, J. Pharma. BioMed Anal. 41:152-7 2006).

[3] = read-out: Solubility in aqueous PBS Buffer (1X, pH 7.4)
[4] = read-out: Solubility in aqueous PBS Buffer (1X, pH 7.4), ug/mL

| SMILES | IC50 [1] [nM] | Solubility in aqueous PBS Buffer (1X, pH 7.4), uM [2] [uM] | Solubility in aqueous PBS Buffer (1X, pH 7.4), ug/mL [2] [ug/mL] | solubility at 24 h [2, 3] [µM] | solubility at 24 h [2, 4] [µg/mL] |
| --- | --- | --- | --- | --- | --- |
| CC[C@H](C)[C@H](NC(=O)C(CCC(=O)O)c1ccccc1)C(=O)NCC(=O)N1c2ccccc2C[C@H]1C(=O)NCc1nn[nH]n1 (single isomer, unassigned) [Example A54-2] | < 100 | >750 | >454 |  |  |
| CC[C@H](C)[C@H](NC(=O)Cc1ccccc1)C(=O)NCC(=O)N1c2ccccc2C[C@H]1C(=O)NCc1nn[nH]n1 [Example A1, (2S)-1-{2-[(2S,3S)-3-Methyl-2-(2-Phenylacetamido)Pentanamido]Acetyl}-N-(2H-1,2,3,4-Tetrazol-5-Ylmethyl)-2,3-Dihydro-1H-Indole-2-Carboxamide] | 100 to 1000 |  |  | 144 | 77 |
| CC[C@H](C)[C@H](NC(=O)Cc1ccncc1)C(=O)NCC(=O)N1c2ccccc2C[C@H]1C(=O)NCc1nn[nH]n1 [Example A2, (2S)-1-{2-[(2S,3S)-3-Methyl-2-[2-(Pyridin-4-Yl)Acetamido]Pentanamido]Acetyl}-N-(2H-1,2,3,4-Tetrazol-5-Ylmethyl)-2,3-Dihydro-1H-Indole-2-Carboxamide] | 100 to 1000 |  |  | > 150 | > 80 |
| CC[C@H](C)[C@H](NC(=O)Cc1cccnc1)C(=O)NCC(=O)N1c2ccccc2C[C@H]1C(=O)NCc1nn[nH]n1 [Example A3, (2S)-1-{2-[(2S,3S)-3-Methyl-2-[2-(Pyridin-3-Yl)Acetamido]Pentanamido]Acetyl}-N-(2H-1,2,3,4-Tetrazol-5-Ylmethyl)-2,3-Dihydro-1H-Indole-2-Carboxamide] | 100 to 1000 |  |  | 139 | 74 |
| CC[C@H](C)[C@H](NC(=O)Cc1ccccn1)C(=O)NCC(=O)N1c2ccccc2C[C@H]1C(=O)NCc1nn[nH]n1 [Example A4, (2S)-1-{2-[(2S,3S)-3-Methyl-2-[2-(Pyridin-2-Yl)Acetamido]Pentanamido]Acetyl}-N-(2H-1,2,3,4-Tetrazol-5-Ylmethyl)-2,3-Dihydro-1H-Indole-2-Carboxamide] | 100 to 1000 |  |  | > 150 | > 80 |
| CC[C@H](C)[C@H](NC(=O)CCN)C(=O)NCC(=O)N1c2ccccc2C[C@H]1C(=O)NCc1nn[nH]n1 [Example A6, (2S)-1-{2-[(2S,3S)-2-(3-Aminopropanamido)-3-Methylpentanamido]Acetyl}-N-(2H-1,2,3,4-Tetrazol-5-Ylmethyl)-2,3-Dihydro-1H-Indole-2-Carboxamide] | 1000 to 10000 |  |  | > 150 | > 78 |
| CC[C@H](C)[C@H](NC(=O)CCCN)C(=O)NCC(=O)N1c2ccccc2C[C@H]1C(=O)NCc1nn[nH]n1 [Example A7, (2S)-1-{2-[(2S,3S)-2-(4-Aminobutanamido-3-Methylpentanamido]Acetyl}-N-(2H-1,2,3,4-Tetrazol-5-Ylmethyl)-2,3-Dihydro-1H-Indole-2-Carboxamide Hydrochloride] | 1000 to 10000 |  |  | 124 | 67 |
| CC[C@H](C)[C@H](NC(=O)Cc1ccc(N)cc1)C(=O)NCC(=O)N1c2ccccc2C[C@H]1C(=O)NCc1nn[nH]n1 [Example A8, (2S)-1-{2-[(2S,3S)-2-[2-(4-Aminophenyl)Acetamido]-3-Methylpentanamido]Acetyl}-N-(2H-1,2,3,4-Tetrazol-5-Ylmethyl)-2,3-Dihydro-1H-Indole-2-Carboxamide Hydrochloride] | 100 to 1000 |  |  | > 150 | > 88 |
| CC[C@H](C)[C@H](NC(=O)Cc1csc(N)n1)C(=O)NCC(=O)N1c2ccccc2C[C@H]1C(=O)NCc1nn[nH]n1 [Example A10, (2S)-1-{2-[(2S,3S)-2-[2-(2-Amino-1,3-Thiazol-4-Yl)Acetamido]-3-Methylpentanamido]Acetyl}-N-(2H-1,2,3,4-Tetrazol-5-Ylmethyl)-2,3-Dihydro-1H-Indole-2-Carboxamide Hydrochloride] | 100 to 1000 |  |  | > 750 | > 443 |
| O=C(Cc1ccccc1)N[C@H](C(=O)NCC(=O)N1c2ccccc2C[C@H]1C(=O)NCc1nn[nH]n1)C1CCCC1 [Example A12, (2S)-1-{2-[(2S)-2-Cyclopentyl-2-(2-Phenylacetamido)Acetamido]Acetyl}-N-(2H-1,2,3,4-Tetrazol-5-Ylmethyl)-2,3-Dihydro-1H-Indole-2-Carboxamide] | 100 to 1000 |  |  | 594 | 323 |
| CC[C@H](C)[C@H](NC(=O)CCCC(=O)O)C(=O)NCC(=O)N1c2ccccc2C[C@H]1C(=O)NCc1nn[nH]n1 [Example A14, 4-{[(1S,2S)-2-Methyl-1-({2-Oxo-2-[(2S)-2-[(2H-1,2,3,4-Tetrazol-5-Ylmethyl)Carbamoyl]-2,3-Dihydro-1H-Indol-1-Yl]Ethyl}Carbamoyl)Butyl]Carbamoyl}Butanoic Acid] | < 100 |  |  | 107 | 57 |
| CC[C@H](C)[C@H](NC(C)=O)C(=O)NCC(=O)N1c2ccccc2C[C@H]1C(=O)NCc1nn[nH]n1 [Example A15, (2S)-1-{2-[(2S,3S)-2-Acetamido-3-Methylpentanamido]Acetyl}-N-(2H-1,2,3,4-Tetrazol-5-Ylmethyl)-2,3-Dihydro-1H-Indole-2-Carboxamide] | 100 to 1000 |  |  | 565 | 258 |
| CC[C@H](C)[C@H](NC(=O)CCC(=O)O)C(=O)NCC(=O)N1c2ccccc2C[C@H]1C(=O)NCc1c[nH]nn1 [Example A16, 3-{[(1S,2S)-2-Methyl-1-({2-Oxo-2-[(2S)-2-[(1H-1,2,3-Triazol-4-Ylmethyl)Carbamoyl]-2,3-Dihydro-1H-Indol-1-Yl]Ethyl}Carbamoyl)Butyl]Carbamoyl}Propanoic Acid] | < 100 |  |  | > 750 | > 385 |
| CC[C@H](C)[C@H](NC(=O)CC(C)(C)CC(=O)O)C(=O)NCC(=O)N1c2ccccc2C[C@H]1C(=O)NCc1nn[nH]n1 [Example A18, 3,3-Dimethyl-4-{[(1S,2S)-2-Methyl-1-({2-Oxo-2-[(2S)-2-[(2H-1,2,3,4-Tetrazol-5-Ylmethyl)Carbamoyl]-2,3-Dihydro-1H-Indol-1-Yl]Ethyl}Carbamoyl)Butyl]Carbamoyl}Butanoic Acid] | < 100 |  |  | 679 | 447 |
| CC[C@H](C)[C@H](NC(=O)CC1(CC(=O)O)CCCC1)C(=O)NCC(=O)N1c2ccccc2C[C@H]1C(=O)NCc1nn[nH]n1 [Example A19, 2-[1-({[(1S,2S)-2-Methyl-1-({2-Oxo-2-[(2S)-2-[(2H-1,2,3,4-Tetrazol-5-Ylmethyl)Carbamoyl]-2,3-Dihydro-1H-Indol-1-Yl]Ethyl}Carbamoyl)Butyl]Carbamoyl}Methyl)Cyclopentyl]Acetic Acid] | < 100 |  |  | 672 | 391 |
| CC[C@H](C)[C@H](NC(=O)/C=C\C(=O)O)C(=O)NCC(=O)N1c2ccccc2C[C@H]1C(=O)NCc1nn[nH]n1 [Example A24, (2Z)-3-{[(1S,2S)-2-Methyl-1-({2-Oxo-2-[(2S)-2-[(2H-1,2,3,4-Tetrazol-5-Ylmethyl)Carbamoyl]-2,3-Dihydro-1H-Indol-1-Yl]Ethyl}Carbamoyl)Butyl]Carbamoyl}Prop-2-Enoic Acid] | < 100 |  |  | 719 | 441 |
| CC[C@H](C)[C@H](NC(=O)c1ccccc1C(=O)O)C(=O)NCC(=O)N1c2ccccc2C[C@H]1C(=O)NCc1nn[nH]n1 [Example A25, 2-{[(1S,2S)-2-Methyl-1-({2-Oxo-2-[(2S)-2-[(2H-1,2,3,4-Tetrazol-5-Ylmethyl)Carbamoyl]-2,3-Dihydro-1H-Indol-1-Yl]Ethyl}Carbamoyl)Butyl]Carbamoyl}Benzoic Acid] | < 100 |  |  | 696 | 462 |
